This assay deals with T1, small-conductance Ca2+-activated K+ channels (SK channels, subtype 2) (Homo sapiens, UniProt Q9H2S1).
T1 construct: expressed in transfected cells; host or cells: HEK293
The experiment in a line: whole-cell patch-clamp of ionic current through SK2 channels in HEK293 cells (SC100). To be noted: concentration that increases the basal current by 100%; HEK293 cells expressing SK2 channels. Format: cell-based. A digest of the protocol: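 Whole-cell patch-clamp recording of current in HEK293 cells expressing SK2 channels. SC100 is the compound concentration that increases basal current by 100%.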

Consider `CN(C)C(=O)C1CC1c1cc(NC2CCC(F)(F)CC2)nc(-n2ccc(CF)n2)n1` (centres unmarked) [Compound 308, 2-(6-((4,4-difluorocyclohexyl)amino)-2-(3-(fluoromethyl)-1H-pyrazol-1-yl)pyrimidin-4-yl)-N,N-dimethylcyclopropane-1-carboxamide], for which the SC100 entry is on record as “+ (+ means >1 uM)”.
As for `Cc1cn(-c2nc(NC3CCC(F)(F)CC3)cc(OC3CN(C(=O)C(C)(C)C)C3)n2)nc1CF` [Compound 309, 1-(3-((6-((4,4-difluorocyclohexyl)amino)-2-(3-(fluoromethyl)-4-methyl-1H-pyrazol-1-yl)pyrimidin-4-yl)oxy)azetidin-1-yl)-2,2-dimethylpropan-1-one], the entry is “++ (++ means 200 nM-1000 nM)”; as for `COC(=O)N1CC(Oc2cc(NC3CCC(F)(F)CC3)nc(-n3cc(C)c(CF)n3)n2)C1` [Compound 310, methyl 3-((6-((4,4-difluorocyclohexyl)amino)-2-(3-(fluoromethyl)-4-methyl-1H-pyrazol-1-yl)pyrimidin-4-yl)oxy)azetidine-1-carboxylate], “++ (++ means 200 nM-1000 nM)”; as for `CC(=O)NCc1cc(NC2CCC(F)(F)CC2)nc(-n2ccc(CF)n2)c1` [Compound 312, N-((2-((4,4-difluorocyclohexyl)amino)-6-(3-(fluoromethyl)-1H-pyrazol-1-yl)pyridin-4-yl)methyl)acetamide], “++ (++ means 200 nM-1000 nM)”.
As to `COC(=O)N1CCC1COc1cc(NC2CCC(F)(F)CC2)nc(-n2ccc(C(F)F)n2)n1` (centres unmarked) [Compound 314, methyl 2-(((6-((4,4-difluorocyclohexyl)amino)-2-(3-(difluoromethyl)-1H-pyrazol-1-yl)pyrimidin-4-yl)oxy)methyl)azetidine-1-carboxylate], the SC100 entry is recorded as “+ (+ means >1 uM)”.
As to `CC(O)c1ccn(-c2nc(NC3CCC(F)(F)CC3)cc(OC3CN(C(=O)C(C)(C)C)C3)n2)n1` (centres unmarked) [Compound 315, 1-(3-((6-((4,4-difluorocyclohexyl)amino)-2-(3-(1-hydroxyethyl)-1H-pyrazol-1-yl)pyrimidin-4-yl)oxy)azetidin-1-yl)-2,2-dimethylpropan-1-one], the SC100 entry is recorded as “+ (+ means >1 uM)”.
As to `CC(C)(C)C(=O)N1CC(Oc2cc(NC3CCC(F)(F)CC3)nc(-c3nc(CF)cs3)n2)C1` [Compound 316, 1-(3-((6-((4,4-difluorocyclohexyl)amino)-2-(4-(fluoromethyl)thiazol-2-yl)pyrimidin-4-yl)oxy)azetidin-1-yl)-2,2-dimethylpropan-1-one], the SC100 entry is given as “+++ (+++ means <200 nM)”.
As for `Cc1cn(-c2nc(NC3CCC(F)(F)CC3)cc(OC3CN(C(=O)C(C)(C)C)C3)n2)nc1C(F)F` [Compound 317, 1-(3-((6-((4,4-difluorocyclohexyl)amino)-2-(3-(difluoromethyl)-4-methyl-1H-pyrazol-1-yl)pyrimidin-4-yl)oxy)azetidin-1-yl)-2,2-dimethylpropan-1-one], the entry is “+++ (+++ means <200 nM)”.
The result for `COC(=O)N1CC(Oc2cc(NC3CCC(F)(F)CC3)nc(-n3cc(C)c(C(F)F)n3)n2)C1` [Compound 318, methyl 3-((6-((4,4-difluorocyclohexyl)amino)-2-(3-(difluoromethyl)-4-methyl-1H-pyrazol-1-yl)pyrimidin-4-yl)oxy)azetidine-1-carboxylate] reads “++ (++ means 200 nM-1000 nM)”.
In the case of `O=C(N1CC(Oc2cc(NC3CCC(F)(F)CC3)nc(-n3ccc(CO)n3)n2)C1)C(F)(F)F` [Compound 319, 1-(3-((6-((4,4-difluorocyclohexyl)amino)-2-(3-(hydroxymethyl)-1H-pyrazol-1-yl)pyrimidin-4-yl)oxy)azetidin-1-yl)-2,2,2-trifluoroethan-1-one], the SC100 result was “+ (+ means >1 uM)”.
As for `Cc1csc(-c2nc(NC3CCC(F)(F)CC3)cc(N3CCOCC3)n2)n1` [Compound 320, N-(4,4-difluorocyclohexyl)-2-(4-methylthiazol-2-yl)-6-morpholinopyrimidin-4-amine], the entry is “++ (++ means 200 nM-1000 nM)”.

(Values after patent publication US10774064B2 (Cadent Therapeutics, Inc., priority 2016, dated 2020).)
